Source: the Kinase Knowledgebase extract (Sharma et al. 2016)

What follows are molecules tested against CDK2 (human) (UniProt P24941) (assay: Enzyme Assay).
In the case of `O=C(CCN1CCCCC1)Nc1ccc2cc1OCCC=CCn1ccc3ccc(cc31)-c1ccnc(n1)N2`, the IC50 is reported as at most 1000 nM. For `C1=CCOCc2cc(ccc2OCCN2CCCC2)Nc2nccc(n2)-c2ccc3ccn(c3c2)CC1`, the IC50 was at most 1000 nM. In the case of `CC(=O)NCCNCCOc1ccc2cc1COCC=CCn1ccc3ccc(cc31)-c1ccnc(n1)N2`, the IC50 is reported as at most 1000 nM. Work on `CN1CC=CCCn2ccc3ccc(cc32)-c2ccnc(n2)Nc2cccc(c2)C1` yielded an IC50 of at most 1000 nM. In the case of `C1=CCn2ccc3ccc(cc32)-c2ccnc(n2)Nc2ccc(OCCN3CCCC3)c(c2)COC1`, the IC50 is reported as at most 1000 nM. `ClCCOc1ccc2cc1COCC=CCn1ccc3ccc(cc31)-c1ccnc(n1)N2` was tested, and the IC50 was at most 1000 nM. `C1=CCOCc2cc(ccc2OCCN2CCCC2)Nc2nccc(n2)-c2ccc3c(ccn3CC1)c2` gave an IC50 of at most 1000 nM. Molecule `C1=CCn2ccc3ccc(cc32)-c2ccnc(n2)Nc2cccc(c2)OCC1` has an IC50 of at most 1000 nM. Molecule `CCN(CC)CCNCCOc1ccc2cc1COCC=CCn1ccc3ccc(cc31)-c1ccnc(n1)N2` has an IC50 of at most 1000 nM. Molecule `O=C(CCN1CCCCC1)Nc1ccc2cc1OCC=CCn1ccc3ccc(cc31)-c1ccnc(n1)N2` has an IC50 of at most 1000 nM. Molecule `CN1CCN(c2ccc3cc2COCC=CCn2ccc4ccc(cc42)-c2ccnc(n2)N3)CC1` has an IC50 of at most 1000 nM. Work on `C1=CCn2ccc3ccc(cc32)-c2ccnc(n2)Nc2cccc(c2)COC1` yielded an IC50 of at most 1000 nM. In the case of `Cc1cnc2nc1-c1ccc3ccn(c3c1)CC=CCOCc1cc(ccc1OCCN1CCCC1)N2`, the IC50 is reported as at most 1000 nM.
